Experimental data published in patent US11617726B2, “Method for preventing, treating, or ameliorating a microbial infection” (priority 2018, dated 2023).

Tested on: Acinetobacter baumannii isolates
Test: Antimicrobial susceptibility test, disc diffusion method (CLSI M100-S24)
Format: cell-based
Design: key to Inhibition zone: “NZ” indicated that no zone of inhibition was observed
Details: for susceptibility category: LEV disc; for Inhibition zone: disc diffusion
Outline: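 Disc diffusion per CLSI M100-S24 on 33 MDR clinical A. baumannii isolates from burn wards; 0.5 McFarland inoculum swabbed onto Mueller-Hinton agar, incubated aerobically 35-37° C, 18-20 h. Zone diameters measured to nearest mm and categorized S/I/R by CLSI breakpoints.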

C[C@H]1COc2c(N3CCN(C)CC3)c(F)cc3c(=O)c(C(=O)O)cn1c23 [LEV, Levofloxacin]
21 mm: Inhibition zone (isolate AB6)
S (Sensitive ≥17): susceptibility category (isolate AB1) | susceptibility category (isolate AB2) | susceptibility category (isolate AB3) | susceptibility category (isolate AB4) | susceptibility category (isolate AB5) | susceptibility category (isolate AB6) | susceptibility category (isolate AB9) | susceptibility category (isolate AB32) | susceptibility category (isolate AB33)
15 mm: Inhibition zone (isolate AB8) | Inhibition zone (isolate AB15) | Inhibition zone (isolate AB28) | Inhibition zone (isolate AB29) | Inhibition zone (isolate AB30)
11 mm: Inhibition zone (isolate AB11) | Inhibition zone (isolate AB14) | Inhibition zone (isolate AB17) | Inhibition zone (isolate AB19) | Inhibition zone (isolate AB23)
10 mm: Inhibition zone (isolate AB12) | Inhibition zone (isolate AB31)
19 mm: Inhibition zone (isolate AB5)
NZ: Inhibition zone (isolate AB16) | Inhibition zone (isolate AB26)
28 mm: Inhibition zone (isolate AB9)
I (Intermediate 14-16): susceptibility category (isolate AB7) | susceptibility category (isolate AB8) | susceptibility category (isolate AB10) | susceptibility category (isolate AB15) | susceptibility category (isolate AB21) | susceptibility category (isolate AB22) | susceptibility category (isolate AB25) | susceptibility category (isolate AB28) | susceptibility category (isolate AB29) | susceptibility category (isolate AB30)
8 mm: Inhibition zone (isolate AB13) | Inhibition zone (isolate AB27)
30 mm: Inhibition zone (isolate AB1) | Inhibition zone (isolate AB2) | Inhibition zone (isolate AB4) | Inhibition zone (isolate AB33)
12 mm: Inhibition zone (isolate AB24)
13 mm: Inhibition zone (isolate AB18) | Inhibition zone (isolate AB20)
R (Resistant ≤13): susceptibility category (isolate AB11) | susceptibility category (isolate AB12) | susceptibility category (isolate AB13) | susceptibility category (isolate AB14) | susceptibility category (isolate AB16) | susceptibility category (isolate AB17) | susceptibility category (isolate AB18) | susceptibility category (isolate AB19) | susceptibility category (isolate AB20) | susceptibility category (isolate AB23) | susceptibility category (isolate AB24) | susceptibility category (isolate AB26) | susceptibility category (isolate AB27) | susceptibility category (isolate AB31)
29 mm: Inhibition zone (isolate AB3)
18 mm: Inhibition zone (isolate AB32)
14 mm: Inhibition zone (isolate AB7) | Inhibition zone (isolate AB10) | Inhibition zone (isolate AB21) | Inhibition zone (isolate AB22) | Inhibition zone (isolate AB25)

NC[C@@H]1O[C@H](O[C@H]2[C@@H](O)[C@H](O[C@@H]3[C@@H](O)[C@H](N)C[C@H](N)[C@H]3O[C@H]3O[C@H](CN)[C@@H](O)[C@H](O)[C@H]3N)O[C@@H]2CO)[C@H](N)[C@@H](O)[C@@H]1O [NEO, Neomycin]
14 mm: Inhibition zone (isolate AB6) | Inhibition zone (isolate AB24)
8 mm: Inhibition zone (isolate AB25) | Inhibition zone (isolate AB31)
7 mm: Inhibition zone (isolate AB22)
10 mm: Inhibition zone (isolate AB5) | Inhibition zone (isolate AB23) | Inhibition zone (isolate AB32)
11 mm: Inhibition zone (isolate AB8)
13 mm: Inhibition zone (isolate AB15) | Inhibition zone (isolate AB19) | Inhibition zone (isolate AB21)
9 mm: Inhibition zone (isolate AB13) | Inhibition zone (isolate AB27)
12 mm: Inhibition zone (isolate AB7)
15 mm: Inhibition zone (isolate AB12) | Inhibition zone (isolate AB18) | Inhibition zone (isolate AB28) | Inhibition zone (isolate AB29) | Inhibition zone (isolate AB30)
22 mm: Inhibition zone (isolate AB3)
27 mm: Inhibition zone (isolate AB4)
NZ: Inhibition zone (isolate AB10) | Inhibition zone (isolate AB11) | Inhibition zone (isolate AB14) | Inhibition zone (isolate AB16) | Inhibition zone (isolate AB20)
20 mm: Inhibition zone (isolate AB2) | Inhibition zone (isolate AB9) | Inhibition zone (isolate AB17) | Inhibition zone (isolate AB26) | Inhibition zone (isolate AB33)
23 mm: Inhibition zone (isolate AB1)

CCN1CCN(C(=O)N[C@@H](C(=O)N[C@@H]2C(=O)N3[C@@H]2SC(C)(C)[C@@H]3C(=O)O)c2ccccc2)C(=O)C1=O [PIP, Piperacillin]
22 mm: Inhibition zone (isolate AB33)
NZ: Inhibition zone (isolate AB5) | Inhibition zone (isolate AB7) | Inhibition zone (isolate AB8) | Inhibition zone (isolate AB10) | Inhibition zone (isolate AB11) | Inhibition zone (isolate AB12) | Inhibition zone (isolate AB13) | Inhibition zone (isolate AB14) | Inhibition zone (isolate AB15) | Inhibition zone (isolate AB19) | Inhibition zone (isolate AB20) | Inhibition zone (isolate AB21) | Inhibition zone (isolate AB22) | Inhibition zone (isolate AB23) | Inhibition zone (isolate AB24) | Inhibition zone (isolate AB26) | Inhibition zone (isolate AB29)
20 mm: Inhibition zone (isolate AB2)
32 mm: Inhibition zone (isolate AB3)
10 mm: Inhibition zone (isolate AB25)
18 mm: Inhibition zone (isolate AB6)
16 mm: Inhibition zone (isolate AB16)
15 mm: Inhibition zone (isolate AB17)
7 mm: Inhibition zone (isolate AB28)
21 mm: Inhibition zone (isolate AB1) | Inhibition zone (isolate AB4)
8 mm: Inhibition zone (isolate AB18) | Inhibition zone (isolate AB27) | Inhibition zone (isolate AB30) | Inhibition zone (isolate AB31) | Inhibition zone (isolate AB32)
24 mm: Inhibition zone (isolate AB9)
